Experimental data from US11116799B2, “Generation of uniform hepatocytes from human embryonic stem cells by inhibiting TGF-beta and methods of maintaining hepatic cultures” (Wisconsin Alumni Research Foundation, priority 2016, dated 2021).
“And” between values parts separate entries of the source, which are not always exact repeats. Equal entries are not always repeated. “Also recorded” adds a separate entry of the source.

What was measured:
[1] = test system: H9-ALB-GFP/AFP-Tomato (dual clone 1) derived hepatocytes; assay: RNA-Seq of ES-derived hepatocytes treated with Stauprimide; format: cell-based, human; parameters: HNF4A RNA-Seq expression / ADH4 RNA-Seq expression / BAAT RNA-Seq expression / SERPINC1 RNA-Seq expression / SERPINA1 RNA-Seq expression / ALB RNA-Seq expression / AFP RNA-Seq expression / UGT1A9 RNA-Seq expression / UGT1A1 RNA-Seq expression / UGT1A6 RNA-Seq expression: unit not given here; settings: dual clone 1 ES-derived hepatocytes (CDI), 72 hrs
Procedure: The effects of Stauprimide in maturation of ES-derived hepatocytes was validated by RNA-Seq as described above. Briefly, the H9-ALB-GFP/AFP-Tomato (dual clone 1) were differentiated to a pure population of hepatocytes by CDI (Madison, Wis.) and treated with Stauprimide for 72 hours. […] Thus, Stauprimide is able to increase expression of mature hepatocyte genes and reduce the expression of the fetal marker AFP.

[2] = test system: hepatocytes; assay: Robotic compound screen for albumin and AFP expression in hepatocytes; format: cell-based
Procedure: A robotic screen was performed to determine compounds that increase expression of albumin in hepatocytes as an indicator that the compounds play a role in hepatocyte maturation. 1200 compounds were screened and 400 compounds analyzed for their effects on hepatocytes with regard to the levels of albumin and fetal marker AFP.

[3] = test system: HepG2 cells; settings: HepG2 treated 72 hours, 10 uM APAP for 1 hour
Excerpt: Samples for LC/MS/MS analysis were processed by solid-phase extraction, and calibrant curves (7 points) for all compounds were generated by spiking standards (Sigma) in E6 media and processed in parallel with samples. An internal standard of deuterated naproxen was included for all analytes. Samples were run on a 0.2×100 mm Cortecs C18 column (Waters Corporation, Milford Mass.) using a Waters Acquity UPLC system coupled to an AB/Sciex Q-Trap 5500 hybrid triple quadrupole instrument (Framingham Mass.). Analytes were detected using multiple-reaction-monitoring with three transitions for each compound being monitored. Each sample was analyzed in triplicate with blanks between each sample analysis. Quantitation was based on area under the curve of the analyte relative to the internal standard and was modeled with a quadratic fit with 1/× weighting using the MultiQuant software (Sciex, Framingham Mass.). […] Average calculated concentrations for each analyte are reported. […] Background was determined by measuring metabolites in media incubated with acetaminophen only for 1 hour and any samples below background were considered nil.
(§1) To test whether the upregulation of metabolic genes at the mRNA level translated into functional metabolic improvement, acetaminophen (APAP) metabolism was assessed by LC/MS/MS.

[4] = test system: CYP2C9; settings: HepG2, treated 72 hours
Procedure: (§2) CYP2C9 and 3A4 metabolism were measured using CYP450 Glo assay (Promega). In short, substrates were added to the media and incubated for 72 hours and the amount of metabolites generated were measured by adding the detection reagent and quantifying the luminescence in a Tecan® plate reader. Background was measured by incubating the substrates for 72 hours in the same media without cells. Cell counting for proliferation assay was carried out by dye exclusion in an automated cell counter (ThermoFisher).
CYP2C9 and 3A4 metabolism were measured using CYP450 Glo assay (Promega). Substrates were added to the media and incubated for 72 hours and the amount of metabolite generated were measured by adding the detection reagent and quantifying the luminescence in a Tecan plate reader. Background was measured by incubating the substrates for 72 hours in the same media without cells.

[5] = test system: HepG2 cells
Procedure: Both types of cells were treated with a vehicle or small molecule for 72 hours and genes were quantified using RNA-Seq.
(§3) Total RNA (including microRNA) from all cells, which were not mentioned otherwise, were isolated using RNAeasy Plus Kit […] following manufacturers protocol. RNA-Seq was performed by LM-Seq (Illumina). MicroRNAs were sequenced using Illumina's small RNA sequencing kit. Expression of let-7 and U6 snoRNA were measured by quantitative PCR using ABI's kit. Let-7c expression levels were normalized by U6 snoRNA expression (RQ or relative quantity values, error bars representing standard error, RQ min and RQ max).
(§4) Total RNA were isolated using RNAeasy Plus Kit (Qiagen) following manufacturers protocol and qualified with the Life Technologies Qubit fluorometer and Agilent Bioanalyzer. […] Final indexed cDNA libraries were pooled and sequenced on an Illumina HiSeq 2500. Base-calling and demultiplexing were performed using Casava (v1.8.2). Sequences were filtered and trimmed to remove low quality reads, adapters, and other sequencing artifacts. The remaining reads were aligned to a reference database comprising only RefSeq-validated transcripts (i.e., assigned an “NM_” accession). Mouse samples were aligned to the mm10 assembly, and human samples were aligned to the hg19 assembly. […] Reads with more than 200 alignments were excluded from further analysis. […] All RNA-seq results have been deposited at NCBI's GEO under Accession No. GSE94353.
as §1

[6] = test system: HepG2 cells; assay: HepG2 viability / cell growth (cell counting by dye exclusion); format: cell-based, human; settings: HepG2, 72 hours, compared to vehicle control
Procedure: as §2

[7] = test system: primary mouse hepatocytes; assay: RNA-Seq gene expression in primary mouse hepatocytes treated with kinase inhibitors; settings: 10 μM, 72 hours
Excerpt: The next step was to determine if the PI3/Akt and MAPK pathways are involved in maintenance of hepatocyte maturation. We investigated whether small molecule inhibition of these pathways would mimic let-7's action and reduce the loss of mature function of hepatocytes in culture after removal from their microenvironment. […] Then, expression of the top ten important metabolic enzymes (CYPs, UGTs and transporters) by RNA-Seq with uncultured fresh hepatocytes and control vehicle hepatocytes treated for 72 hours was compared.
Hepatocytes from 6 black mice livers were isolated by perfusion following standard protocol and cultured on Matrigel coated plates in hepatocyte growth medium (Promocell). Whole developing livers from 6 black mice were used for RNA isolation with Trizol for let-7c measurements.
as §3
Multiple batches of cryopreserved induction qualified human hepatocytes (each batch being from one donor) were purchased from Life Technologies and cultured on Matrigel coated plates in hepatocyte growth medium (PromoCell). For dedifferentiation studies, hepatocytes from batches Hu4260, Hu8135, Hu4279 and Hu8137 were used after mixing equal number of live cells. For small molecule treatments, batch Hu4260 was used. Mouse hepatocytes were isolated from Black 6 mice livers by perfusion following standard protocol and cultured on Matrigel coated plates in hepatocyte growth medium (Promocell).
as §4
The inventors next investigated whether the MAPK and PI3/Akt pathways contributed to the dedifferentiation of hepatocytes. […] Rapamycin was included as a control, which is an inhibitor of the mTOR pathway, a serine/threonine kinase involved in cell signaling not identified as a key pathway in our analysis.

[8] = test system: ALB-GFP/tdTomato-AFP marker cell line; settings: marker line differentiated with TGFB and NOTCH inhibition in E6, then treated 72 hours
Excerpt: We next differentiated the ALB-GFP/tdTomato-AFP marker cell line to hepatocytes with TGFB and NOTCH inhibition in defined E6 medium.

[9] = test system: primary human hepatocytes (PHHs); assay: RNA-Seq gene expression in MAPK inhibitor treated primary human hepatocytes; format: cell-based
Procedure: […]. […] […].
For small RNA-Seq profiling, hepatocytes from Hu8082 were used; for de-differentiation time course and let-7c transduction, hepatocytes from Hu4260, Hu8135, Hu4279 and Hu8137 were used. For both experiments, cells from all 4 donors were mixed in equal numbers after assessment of viability. For small molecule treatments, batch Hu4260 was used.
RNA-Seq was performed by LM-Seq (Illumina).
For small molecule treatments, batch Hu4260 was used.
. To ascertain that the increase in metabolic enzymes took place through specific MAPK inhibition, PHHs were treated with a second MAPK inhibitor, PD0325901, for 72 hours, followed by RNA-Seq analysis (Supplementary Table 4). […].

[10] = primary human hepatocytes, treated 72 hours

SMILES: CO[C@@H]1[C@H](N(C)C(=O)c2ccccc2)C[C@H]2O[C@]1(C)n1c3ccccc3c3c4c(c5c6ccccc6n2c5c31)C(=O)NC4=O [Stauprimide]
- ADH4 RNA-Seq expression [1]: 12.82
- AFP RNA-Seq expression [1]: 2485.61
- ALB RNA-Seq expression [1]: 8513.48
- BAAT RNA-Seq expression [1]: 10.4
- CYP2D6 RNA-Seq expression [1]: 0 TPM
- CYP2E1 RNA-Seq expression [1]: 9.6 TPM
- HNF4A RNA-Seq expression [1]: 25.97
- SERPINA1 RNA-Seq expression [1]: 10030.14
- SERPINC1 RNA-Seq expression [1]: 42.45
- UGT1A1 RNA-Seq expression [1]: 322.35
- UGT1A6 RNA-Seq expression [1]: 411.32
- UGT1A9 RNA-Seq expression [1]: 47.42
- CYP1A1 RNA-Seq expression ([1]; in TPM): 47.04
- CYP2C9 RNA-Seq expression ([1]; in TPM): 19.63
- expression of AFB [2]: did not increase expression
- expression of albumin [2]: increased expression

SMILES: N#CC(=C(/N)Sc1ccccc1N)/C(C#N)=C(\N)Sc1ccccc1N [U0126]
- formation of APAP-glucuronide [3]: induced the formation
- formation of APAP-glutathione [3]: induced the formation
- formation of APAP-sulphate [3]: increased formation
- rate of formation of all APAP metabolites versus PHHs [3]: comparable rate to mature adult PHHs
- CYP2C9 activity (luminescent metabolite formation), increase over vehicle control [4]: > 10 fold and 10 fold
- downregulation of fetal gene AFP compared with untreated control ([5]; HepG2, 72 hours): over 3 orders of magnitude
- AFP gene expression ([5]; HepG2, treated 72 hours): 4.74 transcripts per million
- ALB gene expression ([5]; HepG2, treated 72 hours): 2083.6 transcripts per million
- CD81 gene expression ([5]; HepG2, treated 72 hours): 634.68 transcripts per million
- CYP1A2 gene expression ([5]; HepG2, treated 72 hours): 0.68 transcripts per million
- CYP1B1 gene expression ([5]; HepG2, treated 72 hours): 3.07 transcripts per million
- CYP2C9 gene expression ([5]; HepG2, treated 72 hours): 33.45 transcripts per million
- CYP2D6 gene expression ([5]; HepG2, treated 72 hours): 4.05 transcripts per million
- CYP2E1 gene expression ([5]; HepG2, treated 72 hours): 14.61 transcripts per million
- CYP3A4 gene expression ([5]; HepG2, treated 72 hours): 13.37 transcripts per million
- SLC10A1 gene expression ([5]; HepG2, treated 72 hours): 10.57 transcripts per million
- SLCO1B1 gene expression ([5]; HepG2, treated 72 hours): 120.17 transcripts per million
- SLCO1B3 gene expression ([5]; HepG2, treated 72 hours): 18.83 transcripts per million
- UGT1A1 gene expression ([5]; HepG2, treated 72 hours): 16.61 transcripts per million
- UGT1A6 gene expression ([5]; HepG2, treated 72 hours): 835.05 transcripts per million
- UGT1A9 gene expression ([5]; HepG2, treated 72 hours): 99.71 transcripts per million
- expression of hepatic nuclear receptors (CAR, FXR, LXR, PPAR, PXR, RAR), change >3-fold ([5]; HepG2 cells): did not significantly change
- HepG2 viability / cell growth [6]: significant inhibition of cell growth; also recorded: increased cell death and growth arrest
- ABCC2 gene expression [7]: 415.86 transcripts per million
- CYP1A2 gene expression [7]: 1271.98 transcripts per million
- CYP2C9 gene expression [7]: 2676.68 transcripts per million
- CYP2E1 gene expression [7]: 217.96 transcripts per million
- CYP3A11 gene expression [7]: 632.32 transcripts per million
- CYP3A25 gene expression [7]: 112.18 transcripts per million
- UGT1A6A gene expression [7]: 232.80 transcripts per million
- UGT1A9 gene expression [7]: 184.63 transcripts per million
- UGT1A10 gene expression [7]: 2.44 transcripts per million
- UGT2B5 gene expression [7]: 995.27 transcripts per million
- cells expressing both ALB and AFP [8]: 100%
- expression of hepatic nuclear receptors (CAR, FXR, LXR, PPAR, PXR, RAR), change >3-fold ([9]; PHHs): did not significantly change
- AFP gene expression [9, 10]: 5.79 transcripts per million
- ALB gene expression [9, 10]: 1360.25 transcripts per million
- CD81 gene expression [9, 10]: 417.56 transcripts per million
- CYP1A2 gene expression [9, 10]: 68.21 transcripts per million
- CYP1B1 gene expression [9, 10]: 30.96 transcripts per million
- CYP2C9 gene expression [9, 10]: 77.04 transcripts per million
- CYP2D6 gene expression [9, 10]: 1.81 transcripts per million
- CYP2E1 gene expression [9, 10]: 17.69 transcripts per million
- CYP3A4 gene expression [9, 10]: 43.64 transcripts per million
- SLC10A1 gene expression [9, 10]: 0.00 transcripts per million
- SLCO1B1 gene expression [9, 10]: 153.15 transcripts per million
- SLCO1B3 gene expression [9, 10]: 14.65 transcripts per million
- UGT1A1 gene expression [9, 10]: 47.57 transcripts per million
- UGT1A6 gene expression [9, 10]: 671.53 transcripts per million
- UGT1A9 gene expression [9, 10]: 81.41 transcripts per million
